Laboratory results taken from patent US20240216513A1, “FATTY ACID-BIFUNCTIONAL DEGRADER CONJUGATES AND THEIR METHODS OF USE” (Novartis AG, priority 2021, published 2024).
Read-outs that look alike come from different tables or passages of the source.

Tests used:
BTK = molecular target: T1, BTK (Homo sapiens, UniProt Q06187); experiment: PK/PD in TMD8 tumor-bearing mice: BTK levels in tumor by Meso Scale Discovery; type: in vivo, mouse; settings: for Duration of BTK degradation in mouse ≥90%: I.v.
T1 construct: endogenous in cells; host or cells: TMD8 tumour xenografts in SCID/BEIGE mice
Method: (§1) All animal experiments were performed according to procedures covered by permit number BS-1974, BS-1975 and BS-2904 issued by the Kantonales Veterinäramt Basel-Stadt and strictly adhered to the Eidgenössisches Tierschutzgesetz and the Eidgenössische Tierschutzverordnung. Female Sprague Dawley rat were obtained from Charles Rivers (Germany), female Balb/c mice from Charles Rivers (Italy) and female SCID/BEIGE (C.B-Igh-1b/GbmsTac-Prkdcscid-Lystbg N7) mice from Taconic. All the animals were housed in a pathogen-controlled environment with access to food and water ad libitum and they were identified with transponders.
(§2) Subcutaneous TMD8 tumors were induced by injecting tumor cells expanded in vitro in the right flank of SCID/BEIGE mice. As soon as the injection was finished, antagonization (naloxone, flumazenil and atipamezole injected s.c.) was injected and mice are put on a warming pad for recovery and carefully checked during that time.
(§3) For PK experiments, non-tumor bearing mice or rats were treated once (10 mL/kg) with a compound either i.v. or s.c. Serial blood samplings from the tail vein (5-20 μl) were collected during the course of the experiment. For PK/PD experiments in tumor-bearing mice, compound was administered once (10 mL/kg) either i.v. or s.c. Animals were randomized into groups of n=3 and tissue samples were collected at several time points. At the times indicated, animals were anaesthetized by exposure to 2-3% v/v isoflurane in medical oxygen. They were sacrificed without recovering from anesthetic after blood sampling into commercially prepared EDTA coated tubes (Milian, cat #TOM-14C) in order to extract plasma. The tissues were excised, weighted and rapidly frozen in liquid nitrogen. Later, tumors were cryogenic dry pulverized with the CryoPrep™ system (model CP-02, Covaris). For efficacy experiments in ectopic tumor-bearing mice, animals were randomized into groups of n=6 for a mean tumor size of 100 mm^3 and compound was administered either i.v. q3w or s.c. q2w. When implanted in brain, animals were randomized into groups of n=4 for a mean bioluminescence of 1.0-2.0E+06 [p/s]/[ρW/cm^2] and compound was administered i.v. qw. Tumor response were reported with the measures of tumor volumes or bioluminescence from the treatment start. Concentrations of compound in blood and tissues were determined simultaneously by UPLC/MS-MS. BTK and IL-10 levels in tumor were determined by Meso Scale Discovery (MSD).

TMD8 tumors = experiment: Efficacy in ectopic (subcutaneous) TMD8 tumor-bearing SCID/BEIGE mice, tumor volume; type: in vivo, mouse; settings: I.v.
Method: as §1, §2, §3

[1] = In vivo pharmacokinetic study in mice (i.v. or s.c.), FAC and payload in blood; set-up: species or system mouse; settings: male
Method: Pharmacokinetic studies were conducted in male C57/B16 mice; male Sprague-Dawley rats; male Beagle dogs and male Cynomolgus monkeys. 3 animals per group were used for each study performed. All studies were performed in accordance with local animal welfare regulations.
[…] Serial 30 µL blood samples were collected via venipuncture of the tail vein in mouse, and via the cannulated jugular vein in rats at defined timepoints to 216 hours (into EDTA coated tubes).
Each blood sample was precipitated with acetonitrile containing internal standard; samples were mixed and centrifuged (20 minutes 4000 RPM at 4° C.). Supernatant was transferred to a microwell plate and evaporated under nitrogen at 60° C. Residue was resuspended in acetonitrile/water (7:3 v/v); plate sealed and transferred to an ultrasonic bath for 3 minutes, prior to analysis. Quantification was performed by LC-MS/MS (SciexAP16500 Q-trap, Shimadzu Nexera X2) using a Phenomenex Polar RP analytical column (2.5 μm particle size; 50×2 mm). The mobile phase consisted of solvent A (0.1% formic acid in water) and solvent B (0.1% formic acid in acetonitrile). The fatty acid conjugate and API were detected using multiple reaction monitoring.
Data analysis and calculation of non-compartmental pharmacokinetic parameters was
performed using an in-house analysis. Following intravenous administration whole blood clearance was calculated by the dose administered divided by AUC0-inf. Volume of distribution at steady state was calculated as MRT*CL, where MRT is the mean residence time, calculated by AUMC0-inf/AUC0-inf. The half-life (t1/2) of the terminal elimination phase was calculated by 0.693/λ. For both intravenous and subcutaneous administration, the systemic exposures were determined by calculating the area under the blood concentration time curve (AUC) from time zero to the last observed quantifiable concentration (AUClast) by using the linear trapezoidal method and normalised to dose. Extrapolated AUC (AUC0-inf) is calculated by addition of AUClast and AUCtlast-inf; where AUCtlast-inf is calculated based on Clast/λ. The slope of the terminal elimination phase was estimated by linear regression of the terminal data points (minimum 3 points) from a natural log concentration versus time plot of the data. Bioavailability was calculated as the dose normalized ratio of […] AUCinf to intravenous AUCinf (100*[SC AUCinf/SC dose]/[IV AUCinf/IV dose]). Following subcutaneous administration Cmax is calculated as the average maximum observed peak concentration and Tmax is the time associated with the determined Cmax.
as §3, with “Concentrations of compound in blood and tissues were determined simultaneously by UPLC/MS-MS. BTK and IL-10 levels in tumor were determined by Meso Scale Discovery (MSD).” left out

[2] = C57/B16, mouse, in vivo, sc, 40 umol/kg

T1 sequence (Q06187 whole entry): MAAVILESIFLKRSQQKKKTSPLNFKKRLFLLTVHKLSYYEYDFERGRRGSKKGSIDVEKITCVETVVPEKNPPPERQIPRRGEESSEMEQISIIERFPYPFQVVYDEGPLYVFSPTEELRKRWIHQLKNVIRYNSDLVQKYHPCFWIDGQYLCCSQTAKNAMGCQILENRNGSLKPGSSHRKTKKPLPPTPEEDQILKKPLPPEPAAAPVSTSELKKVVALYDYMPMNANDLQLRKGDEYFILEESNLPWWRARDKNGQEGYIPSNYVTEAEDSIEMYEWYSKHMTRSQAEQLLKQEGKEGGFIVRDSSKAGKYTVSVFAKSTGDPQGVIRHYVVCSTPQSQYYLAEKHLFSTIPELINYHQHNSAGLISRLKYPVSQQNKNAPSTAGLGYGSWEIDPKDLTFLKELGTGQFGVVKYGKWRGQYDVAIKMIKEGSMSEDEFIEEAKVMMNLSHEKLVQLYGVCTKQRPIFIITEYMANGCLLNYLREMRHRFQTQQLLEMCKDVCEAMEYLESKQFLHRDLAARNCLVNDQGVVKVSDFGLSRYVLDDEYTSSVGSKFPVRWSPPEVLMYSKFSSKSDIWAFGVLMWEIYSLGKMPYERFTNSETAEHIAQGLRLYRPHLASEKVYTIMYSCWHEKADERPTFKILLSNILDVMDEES

SMILES | Duration of BTK degradation in mouse ≥90% (BTK; 40 umol/kg) [days] | Dosing to achieve sustained ~90% regression (TMD8 tumors) | AUC [1, 2] [µM·h] | Cmax [1, 2] [µM] | Duration of BTK degradation in mouse ≥90% (BTK; 20 mg/kg (unconjugated N)) [days] | Duration of BTK degradation in mouse ≥90% (days) (BTK; s.c., 10 mg/kg (unconjugated N)) | AUC ([1]; C57/B16, whole blood, iv, Mouse, unconj. BTK Degrader dosed itself (i.v. per row label), API dose 10 umol/kg, read-out: Payload (BTK Degrader) AUC) [µM·h] | Cmax ([1]; C57/B16, whole blood, iv, Mouse, unconj. BTK Degrader dosed itself (i.v. per row label), API dose 10 umol/kg, read-out: Payload (BTK Degrader) Cmax) [µM]
CCCCCCCCCCC[C@@](CCCCCCCCCCC(=O)O)(C(=O)O)C(=O)NCCOCCOCCOCCOCCOCCOCCOCCOCCOCCOCCOCCOCCC(=O)NCC(=O)OC(C)(C)c1ccc(C(=O)Nc2cc(F)cc(-c3ncnc4[nH]c(-c5ccc(CN6CCC(OC7CCN(CCn8cccc(CN9CCC(=O)NC9=O)c8=O)CC7)CC6)cc5)cc34)c2C)c(F)c1 (single isomer, unassigned) [Compound B2] | 10 | 60 umol/kg q3w | 1860 | 60 | – | – | – | –
CCCCCCCCCCC[C@](CCCCCCCCCCC(=O)O)(C(=O)O)C(=O)NCCOCCOCCOCCOCCOCCOCCOCCOCCOCCOCCOCCOCCC(=O)NCC(=O)OC(C)(C)c1ccc(C(=O)Nc2cc(F)cc(-c3ncnc4[nH]c(-c5ccc(CN6CCC(OC7CCN(CCn8cccc(CN9CCC(=O)NC9=O)c8=O)CC7)CC6)cc5)cc34)c2C)c(F)c1 (single isomer, unassigned) [Compound B3] | 14 | 20 umol/kg q3w | 3850 | 68 | – | – | – | –
Cc1c(NC(=O)c2ccc(C(C)(C)O)cc2F)cc(F)cc1-c1ncnc2[nH]c(-c3ccc(CN4CCC(OC5CCN(CCn6cccc(CN7CCC(=O)NC7=O)c6=O)CC5)CC4)cc3)cc12 [Compound N, N-(3-(6-(4-((4-((1-(2-(3-((2,4-Dioxotetrahydropyrimidin-1(2H)-yl)methyl)-2-oxopyridin-1(2H)-yl)ethyl)piperidin-4-yl)oxy)piperidin-1-yl)methyl)phenyl)-7H-pyrrolo[2,3-d]pyrimidin-4-yl)-5-fluoro-2-methylphenyl)-2-fluoro-4-(2-hydroxypropan-2-yl)benzamide] | – | 20 mg/kg 2qw | – | – | 4 | 1(10 mg/kg) days | 9.3 | 1.6
